Reference: US9179678B2, “Substituted [1,2,4]triazoles and substituted tetrazoles as herbicides” (SYNGENTA LIMITED, priority 2012, dated 2015)

Tests used:
Assay type in all cases: in vivo
Solanum nigrum (SOLNI) [1] = assay: Pre-emergence glasshouse herbicide test; conditions: PRE Application, 1000 g/h, after 13 days
Method: (§1) Seeds of a variety of test species are sown in standard soil in pots (Alopecurus myosuroides (ALOMY), Setaria faberi (SETFA), Echinochloa crus-galli (ECHCG), Solanum nigrum (SOLNI), Amaranthus retoflexus (AMARE), Ipomoea hederacea (IPOHE)). After cultivation for one day (pre-emergence) or after 8 days cultivation (post-emergence) under controlled conditions in a glasshouse (at 24/16° C., day/night; 14 hours light; 65% humidity), the plants are sprayed with an aqueous spray solution derived from the formulation of the technical active ingredient in acetone/water (50:50) solution containing 0.5% Tween 20 (polyoxyethelyene sorbitan monolaurate, CAS RN 9005-64-5). Compounds ae applied at 1000 g/h. The test plants are then grown in a glasshouse under controlled conditions in a glasshouse (at 24/16° C., day/night; 14 hours light; 65% humidity) and watered twice daily. After 13 days for pre and post-emergence, the test is evaluated for the percentage damage caused to the plant. The biological activities are shown in the following table on a five point scale (5=80-100%; 4=60-79%; 3=40-59%; 2=20-39%; 1=0-19%).

[2] = system: Ipomoea hederacea (IPOHE); assay: Pre-emergence glasshouse herbicide test; conditions: PRE Application, 1000 g/h, after 13 days
Method: as §1

[3] = system: Alopecurus myosuroides (ALOMY); assay: Pre-emergence glasshouse herbicide test; conditions: PRE Application, 1000 g/h, after 13 days
Method: as §1

[4] = system: Amaranthus retoflexus (AMARE); assay: Pre-emergence glasshouse herbicide test; conditions: PRE Application, 1000 g/h, after 13 days
Method: as §1

[5] = system: Echinochloa crus-galli (ECHCG); assay: Pre-emergence glasshouse herbicide test; conditions: PRE Application, 1000 g/h, after 13 days
Method: as §1

Setaria faberi (SETFA) [6] = assay: Pre-emergence glasshouse herbicide test; conditions: PRE Application, 1000 g/h, after 13 days
Method: as §1

Solanum nigrum (SOLNI) [7] = assay: Post-emergence glasshouse herbicide test; conditions: POST Application, 1000 g/h, after 13 days
Method: as §1

[8] = system: Ipomoea hederacea (IPOHE); assay: Post-emergence glasshouse herbicide test; conditions: POST Application, 1000 g/h, after 13 days
Method: as §1

[9] = system: Alopecurus myosuroides (ALOMY); assay: Post-emergence glasshouse herbicide test; conditions: POST Application, 1000 g/h, after 13 days
Method: as §1

[10] = system: Amaranthus retoflexus (AMARE); assay: Post-emergence glasshouse herbicide test; conditions: POST Application, 1000 g/h, after 13 days
Method: as §1

[11] = system: Echinochloa crus-galli (ECHCG); assay: Post-emergence glasshouse herbicide test; conditions: POST Application, 1000 g/h, after 13 days
Method: as §1

Setaria faberi (SETFA) [12] = assay: Post-emergence glasshouse herbicide test; conditions: POST Application, 1000 g/h, after 13 days
Method: as §1, with “Compounds ae applied at 1000 g/h.” left out

SMILES	percentage damage caused to the plant, SOLNI (Solanum nigrum (SOLNI) [1])	percentage damage caused to the plant, IPOHE [2]	percentage damage caused to the plant, ALOMY [3]	percentage damage caused to the plant, AMARE [4]	percentage damage caused to the plant, ECHCG [5]	percentage damage caused to the plant, SETFA (Setaria faberi (SETFA) [6])	percentage damage caused to the plant, SOLNI (Solanum nigrum (SOLNI) [7])	percentage damage caused to the plant, IPOHE [8]	percentage damage caused to the plant, ALOMY [9]	percentage damage caused to the plant, AMARE [10]	percentage damage caused to the plant, ECHCG [11]	percentage damage caused to the plant, SETFA (Setaria faberi (SETFA) [12])
Cc1ccc(-n2c(=O)c(C(=O)Nc3nnnn3C)nc3ccccc32)cc1 [Compound 5.012]	5 (5=80-100%)	5 (5=80-100%)	2 (2=20-39%)	5 (5=80-100%)	5 (5=80-100%)	3 (3=40-59%)	5 (5=80-100%)	5 (5=80-100%)	2 (2=20-39%)	5 (5=80-100%)	5 (5=80-100%)	4 (4=60-79%)
CCOc1cccc(-n2c(=O)c(C(=O)Nc3nnnn3C)nc3ccccc32)c1 [Compound 5.014]	5 (5=80-100%)	4 (4=60-79%)	2 (2=20-39%)	5 (5=80-100%)	2 (2=20-39%)	5 (5=80-100%)	5 (5=80-100%)	5 (5=80-100%)	3 (3=40-59%)	5 (5=80-100%)	4 (4=60-79%)	5 (5=80-100%)
Cn1nnnc1NC(=O)c1nc2ccccc2n(-c2ccc(Cl)cc2)c1=O [Compound 5.015]	5 (5=80-100%)	5 (5=80-100%)	2 (2=20-39%)	5 (5=80-100%)	5 (5=80-100%)	5 (5=80-100%)	5 (5=80-100%)	5 (5=80-100%)	4 (4=60-79%)	5 (5=80-100%)	5 (5=80-100%)	5 (5=80-100%)
Cn1nnnc1NC(=O)c1nc2ccccc2n(-c2cccc(Cl)c2)c1=O [Compound 5.016]	5 (5=80-100%)	5 (5=80-100%)	4 (4=60-79%)	5 (5=80-100%)	5 (5=80-100%)	5 (5=80-100%)	5 (5=80-100%)	5 (5=80-100%)	5 (5=80-100%)	5 (5=80-100%)	5 (5=80-100%)	5 (5=80-100%)
Cn1nnnc1NC(=O)c1nc2ccccc2n(-c2cc(Cl)cc(Cl)c2)c1=O [Compound 5.017]	5 (5=80-100%)	4 (4=60-79%)	4 (4=60-79%)	5 (5=80-100%)	1 (1=0-19%)	5 (5=80-100%)	5 (5=80-100%)	4 (4=60-79%)	5 (5=80-100%)	5 (5=80-100%)	2 (2=20-39%)	5 (5=80-100%)
Cn1nnnc1NC(=O)c1nc2ccccc2n(-c2cccc(F)c2)c1=O [Compound 5.018]	5 (5=80-100%)	5 (5=80-100%)	5 (5=80-100%)	5 (5=80-100%)	5 (5=80-100%)	5 (5=80-100%)	5 (5=80-100%)	5 (5=80-100%)	5 (5=80-100%)	5 (5=80-100%)	5 (5=80-100%)	5 (5=80-100%)
Cn1nnnc1NC(=O)c1nc2ccccc2n(-c2ccc(C(F)(F)F)cc2)c1=O [Compound 5.019]	5 (5=80-100%)	5 (5=80-100%)	4 (4=60-79%)	5 (5=80-100%)	5 (5=80-100%)	5 (5=80-100%)	5 (5=80-100%)	5 (5=80-100%)	3 (3=40-59%)	5 (5=80-100%)	5 (5=80-100%)	5 (5=80-100%)
CSc1ccc(-n2c(=O)c(C(=O)Nc3nnnn3C)nc3ccccc32)cc1 [Compound 5.020]	5 (5=80-100%)	3 (3=40-59%)	1 (1=0-19%)	5 (5=80-100%)	3 (3=40-59%)	1 (1=0-19%)	5 (5=80-100%)	5 (5=80-100%)	5 (5=80-100%)	5 (5=80-100%)	5 (5=80-100%)	2 (2=20-39%)
Cn1nnnc1NC(=O)c1nc2ccccc2n(-c2cccc(C#N)c2)c1=O [Compound 5.021]	5 (5=80-100%)	5 (5=80-100%)	5 (5=80-100%)	5 (5=80-100%)	5 (5=80-100%)	5 (5=80-100%)	5 (5=80-100%)	5 (5=80-100%)	4 (4=60-79%)	5 (5=80-100%)	2 (2=20-39%)	5 (5=80-100%)
Cn1nnnc1NC(=O)c1nc2ccccc2n(-c2ccc([N+](=O)[O-])cc2)c1=O [Compound 5.022]	5 (5=80-100%)	4 (4=60-79%)	3 (3=40-59%)	5 (5=80-100%)	5 (5=80-100%)	5 (5=80-100%)	5 (5=80-100%)	5 (5=80-100%)	2 (2=20-39%)	5 (5=80-100%)	4 (4=60-79%)	4 (4=60-79%)
